Measurements as given in a melting point compilation (Tetko et al.; mined from patent text by program, amines drawn as free bases though some values may be those of a salt).

Structure (SMILES) | melting point [°C]
O=C(CBr)NC1(F)C=CC=CC1C(=O)c1ccccc1 (stereo not drawn) | 120 to 121
Cc1nc(Cl)c([N+](=O)[O-])c(NCCNC(=O)OC(C)(C)C)c1C | 110 to 112
COc1cc(C)c2ccc(Br)cc2n1 | 58 to 60
CC(C)(C)c1cc(-c2nnc(S(C)(=O)=O)s2)cc(C(C)(C)C)c1O | 156
CC(=O)NC(=N[N+](=O)[O-])NCc1ccc(Cl)nc1 | 125 to 126
Cc1nc(Nc2ccc(F)cc2)nc(Br)c1C | 123
COCc1cnc(C(=O)O)c(C(=O)O)c1 | 161 to 162
O=C(C=Cc1ccccc1)c1cc(Cl)ccc1O | 142 to 145
CC(=O)SCC(C)C(=O)N(CC(=O)O)C1CCC1 (stereo not drawn) | 162 to 164
COC(=O)[C@@H]1CCCN1S(=O)(=O)c1ccc(Cl)c(COc2cccc3c(C)cc(C)nc23)c1Cl | 138
O=c1c(Cl)c(Cl)cnn1C1OCCCC1Cl (stereo not drawn) | 109 to 110
CCNC(=N)NC(=O)c1c(-c2ccccc2)noc1C | 215
COc1cccc(N2CCN(Cc3cn4cc(Cl)ccc4n3)CC2)c1 | 132 to 134
CC(=O)Oc1cc2c(c3ccccc13)Nc1ccccc1S2 | 184 to 185
COC1CCC2(C)C(=CCC3C2CCC2(C)C(C(C)=O)CCC32)C1 (stereo not drawn) | 123 to 124
C[C@@H](n1cnc2cc(N(C)C)ccc2c1=O)[C@](O)(Cn1cncn1)c1ccc(F)cc1F | 201
OCc1[nH]c(=S)n(C2CCc3ccccc3C2)c1CO (stereo not drawn) | 199 to 200
COC(=O)C=Cc1ccc(O)cc1 | 139 to 140
CCCCCCC(=O)c1ccc2occc2c1 | 64 to 67
CC(C)(C)OC(=O)CN(Cc1ccccc1)S(=O)(=O)c1ccc2c(Cl)cnc(Cl)c2c1 | 134 to 136
CC(C)(O)CC(O)c1cccc(OCc2ccc3ccccc3n2)c1 (stereo not drawn) | 117 to 124
CCON=C(CC)C1=C(O)CC(c2ccc3c(c2)N(COC)C(=O)CO3)CC1=O (stereo not drawn) | 101 to 103
CN(C(=O)c1ccc(Cn2cnc3ccccc32)cc1)[C@@H]1CCNC1 | 150 to 152
O=C(O)COc1ccc(SCc2cc(-c3ccc(C(F)(F)F)cc3)on2)c2c1CCCC2 | 167 to 170
O=C(Nc1ccccc1F)Nc1cc(Cl)ccc1C(=O)O | 195 to 197

Structure (SMILES) | melting point [°C]
OC1(C(Br)Br)O[C@H](COCc2ccccc2)[C@@H](OCc2ccccc2)[C@H](OCc2ccccc2)[C@H]1OCc1ccccc1 (stereo partly drawn) | 77 to 78
CC(C)=C(C[C@H](N)C(=O)O)C(=O)O | 198 to 199
CCOC(=O)[C@H](C)N[P@@]1(=O)OC[C@H]2O[C@@H](n3cnc4c(OCC)nc(N)nc43)[C@](C)(F)[C@@H]2O1 | 195 to 197
CCOC(=O)N1CCN(c2cn(Cc3ccccc3)c3cc(OC)ccc3c2=O)CC1 | 173 to 174
Clc1nc2ccccc2c2c1ncn2Cc1ccccn1 | 217 to 220
COc1cc(NC(=O)CN2CCN(c3ncccc3C#N)CC2)cc(OC)c1OC | 123 to 124
COc1cc(C(=O)NS(=O)(=O)c2ccccc2C)ccc1Cc1cn(C)c2ccc(CC(C)C(=O)NCC3CCCC3)cc12 (stereo not drawn) | 119 to 126
O=Cc1csc(Oc2ccccc2)n1 | 63
CS(=O)(=O)c1c(C(=O)NN=Cc2ccc3ccccc3c2)[nH]c2ccccc12 | > 250
O=C1NC2C3C=CC(C3)C12 (stereo not drawn) | 94 to 97
CN1CCN(C(=O)OC2C3=C(SCCS3)C(=O)N2c2ccc(Cl)cn2)CC1 (stereo not drawn) | 170
Cn1nc(C#N)c(Nc2ccc(Br)cc2[N+](=O)[O-])n1 | 162 to 164
CCCCCCCCCCCCCCOc1cccc(C(=O)N(Cc2ccccn2)C(C)=O)c1 | 66 to 67
CCOC(=O)CN(CC(=O)OCC)C(=O)c1cc(OCCCCCCOc2ccc(-c3ccccc3)cc2)ccc1OCc1ccccc1 | 60 to 62
O=S(=O)(CCCCCOc1ccc(C2=C(c3ccc(O)cc3)CCCc3cc(O)ccc32)cc1)CCCC(F)(F)C(F)(F)F | 168 to 170
O=C(C(=O)c1ccc(F)c(Br)c1)c1ccc(OCCF)cc1 | 107
CC1(C)CC(=O)CC(=O)N1 | 183 to 184
CCN(c1ccccc1)c1nc(=O)c2cccnc2s1 | 174 to 175
C[C@H](c1ccccc1)N1CCO[C@@H](c2ccc(Br)cc2)C1 | 85 to 87
O=C(CCc1ccc([N+](=O)[O-])cc1)c1c(O)c2cccnc2n(-c2ccccc2)c1=O | 215 to 217
O=C(Nc1cc(Cl)c(F)cc1-c1ccccc1)c1cccnc1Cl | 131 to 136
CC(=O)OC(C)c1cccc2cc(C(C)=O)oc12 (stereo not drawn) | 82 to 83
CCCCN(CCCC)CCCCCOc1ccc(S(=O)(=O)c2c(CC)cn3ccccc23)cc1 | 89 to 90
CCC(=O)C1=C(O)CC(c2ccc3c(c2)CCCC3)CC1=O (stereo not drawn) | 87
COC(=O)NC1(c2ccccc2)CCN(Cc2ccccc2)CC1 | 121 to 122

Structure (SMILES) | melting point [°C]
CCOC(=O)c1c(N=Cc2ccc([N+](=O)[O-])s2)sc(N=Cc2ccc([N+](=O)[O-])s2)c1C(=O)OCC | 255 to 257
O=c1n(-c2ccccc2)nc2c3ccccc3nc(Cl)n12 | 167 to 168
CCOC(=O)C1=CNc2ccc(C(F)(F)F)cc2CC1c1ccccc1Cl (stereo not drawn) | 190 to 192
CC1=NN(C)C(=O)C1(Cl)C(Cl)c1ccc(Cl)cc1Cl (stereo not drawn) | 113 to 115
CNC(=O)[C@@H]1CSCN1S(=O)(=O)c1ccc(Cl)c(COc2cccc3c(-n4ccnc4)cc(C)nc23)c1Cl | 120
O=C1N(Cc2ccc(=O)[nH]c2)c2ccccc2C12COc1cc3c(cc12)OCO3 (stereo not drawn) | 247 to 250
COC(=O)C(=O)c1nsc(NC(=O)Oc2ccccc2)n1 | 74 to 79
COc1ccc(C)cc1NC(=O)Nc1ccc(C2CCN(C(=O)Nc3cc(OCCO)ccc3Cl)CC2)cc1 | 202 to 205
O=S(=O)(c1cccs1)N(CC(F)(F)F)c1cccc2cc(-c3nccs3)[nH]c12 | 194 to 195
Cc1ccc(N(C)S(=O)(=O)c2cccs2)c2[nH]c(C3=NCC(CC(N)=O)S3)cc12 (stereo not drawn) | 120 to 121
CC(=O)Nc1ccc(CCC2(c3ccccc3)CC(O)=CC(=O)O2)cc1 (stereo not drawn) | 155 to 160
O=c1oc(-c2ccc(Cl)cc2)cc(O)c1SCCc1ccccc1 | 161 to 163
S=C(Nc1ccc(Br)cn1)N[C@@H]1C[C@@H]1c1ccccc1 | 192 to 193
CCN1C(=O)C(C)(C)C(=O)N(C)c2cc(CN(CCn3cc(C)c4occc4c3=O)Cc3cnc(C)nc3)ccc21 | 166 to 167
CC(C)Oc1c(C(=O)Nc2nnn[nH]2)sc2c1CS(=O)(=O)CC2 | 230 to 232
CC(=O)c1ccc(NS(C)(=O)=O)c(Sc2ccc(F)cc2F)c1 | 114 to 117
CC(=NO)C12CCCC(C1)C1CCC2C1 (stereo not drawn) | 157 to 158
COc1cccc(C2(C#N)CCN(C(=O)CN3CCN(c4cnccn4)CC3)CC2)c1 | 108
CS(=O)(=O)C(=C1CN(C(c2ccccc2)c2ccccc2)C1)c1cccc(Cl)c1 | 205
CC(C)(C)C(=O)c1c[nH]c2ncc(-c3ccccn3)nc12 | 276 to 278
C=CCNC(=O)c1ccccc1C(c1ccc(O)cc1)c1ccc(O)cc1 | 179 to 181
Nc1ccc2sc(-c3cccnc3)nc2c1 | 189 to 196
CCCc1nn2ncc(C(=O)O)c2n1Cc1ccc(-c2ccccc2-c2nc(=O)o[nH]2)cc1 | 223 to 225
COc1ccc(C(=O)Nc2ccc(F)cc2)cc1N([N+](=O)[O-])S(=O)(=O)c1ccccc1 | 221 to 240
CN1CCN(c2cc(Cl)c3c(c2)N(Cc2ccccc2)C(=O)N(Cc2cccc(O)c2)S3(=O)=O)CC1 | 170 to 172

Structure (SMILES) | melting point [°C]
Brc1ccc(-c2ccnc(-c3ccccc3)n2)cc1 | 107
CCOC(=O)C1=C(C)NC2=C(C(=O)CCC2)C1c1nccn1C (stereo not drawn) | 271 to 272
CCCCCCCCCCCCCCOC(=O)c1cc(C(=O)OCCCCCCCCCCCCCC)cc([N+](=O)[O-])c1 | 60 to 61
CS(=O)C1C=Nc2cc(Br)ccc2C1=O (stereo not drawn) | 255 to 256
CC(C)NCC(O)COc1cccnc1[N+](=O)[O-] (stereo not drawn) | 99 to 101
CCOC(=O)C(C)N1C(=O)C(C)Oc2c(N3CCOCC3)nc(C)nc21 (stereo not drawn) | 80 to 82
CCOC(=O)c1nnc2n1-c1ccccc1C(c1ccccc1)=NC2 | 205 to 206
O=C(c1cccnc1)N1CC2CSc3ccccc3C2=N1 (stereo not drawn) | 173 to 175
CCSc1cc(C)nc(SCC)c1NC(=O)CCCSc1nc2ccccc2o1 | 123 to 125
CCCCc1c(C)[nH]c(C(=O)OCC)c1OCC1CO1 (stereo not drawn) | 125 to 127
CC(=O)NC[C@H]1CN(c2ccc(-c3nsc(C(N)=O)n3)c(F)c2)C(=O)O1 | 238 to 240
CNCCCNc1ccc2c(NC(=O)CC34CC5CC(CC(C5)C3)C4)c(C)ccc2n1 | 217 to 224
CC(=O)c1ccc(-c2ccccc2)cc1O | 90 to 92
CCCCOc1c(CO)n(CC2CC2)c(=O)c2ccc(OCc3ccccc3)cc12 | 96 to 97
CN(CCCNC(=O)c1cccc2nc3ccc(Cl)cc3nc12)CCCNC(=O)c1cccc2nc3ccc(Cl)cc3nc12 | 210 to 212
N#Cc1ccc(CN2C(=O)C3(COc4cc5c(cc43)OCCO5)c3ccccc32)cc1 (stereo not drawn) | 69 to 72
CCC(=O)Nc1nc(-c2ccc(OC(F)F)cc2)cs1 | 186 to 188
COc1ccc(-c2snnc2SC)cc1 | 60.5 to 61
CC1(C)[C@H](CN2CCCCS2(=O)=O)CC[C@]1(C)NCC(=O)N1C[C@@H](F)C[C@H]1C#N | 186 to 190
Cc1c(C)c2ccc(OCCCCCc3ccccc3)cc2oc1=O | 101
Cc1cccc(NC(=O)NCC(=O)N(CC(=O)N2CCC(C)(C)CC2)c2ccccc2)c1 | 205
CN=C(NC#N)Nc1ccc2c(c1)CCC1(C)CC(=O)NN=C21 (stereo not drawn) | 269
NS(=O)(=O)c1ccc(Nc2nc(OCC3CCCCC3)c3[nH]cnc3n2)cc1 | 152 to 154
